From patent US9005627B2, “Contiguous overlapping peptides for treatment of ragweed pollen allergy” (Anergis S.A., priority 2011, dated 2015)
Entries after “also recorded” stand apart in the source; their conditions may differ. No end group written: not given here.

Legend:
[1] = Solubility characteristics of COPs
Procedure: (§1) Peptides were resuspended either in water at 2 mg/ml or at 10 to 20 mg per ml in DMSO as indicated and frozen in aliquots.

[2] = pH 7
Procedure: as §1

[3] = test system: Amb a 1 specific IgE in serum of subjects allergic to ragweed pollen; assay: Competition ELISA for IgE binding on nAmb a 1 coated plates; design: species or system human
Procedure: Recombinant Amb a 1 at 0.5 μg/ml (purified nAmb a 1 obtained from Protein Labs, San Diego) was coated overnight on 96-well Nunc Maxisorp® immunoplates (Life Technologies, Basel, Switzerland). After blocking with 1% BSA, either ten-fold, twenty-fold, thirty-fold or forty-fold dilutions of patient serum were added depending on specific IgE content. […] The sera of three allergic patients were selected for high IgE level and clear signal over background and used to test for competition with the peptides. Serial dilutions of each set of COPs, namely Set A; Set B and Set C, at indicted concentrations were pre-incubated with the three selected sera overnight at 4° C. Sera were then incubated on nAmb a 1 coated 96-well plates and residual IgE binding was determined as described above. nAmb a 1 dilutions were used as control for inhibition, whereas BSA was used as control for possible non-specific inhibition.

[4] = test system: human basophils loaded with serum from a patient allergic to ragweed pollen; assay: Human basophil degranulation test (Basotest); type: cell-based
Procedure: BasotestR (ORPEGEN Pharma Heidelberg, Germany) was used for the quantitative determination of in vitro basophile degranulation. Heparinized blood (100 μl) from a non-allergic donor (ACT) was first incubated with serum (25 μl) from a patient allergic to ragweed pollen (FB) for 2 hours. The mix was further stimulated with buffer (reagent B) for 10 min at 37° C., and then with or without chemotactic peptide formylmethionylleucylphenylalanine (fMLP) as positive and negative controls respectively. Aliquots of blood were incubated in parallel with 100 μl allergen solution diluted in a saline solution for 20 min at 37° C. A dose response curve was performed with 250-12.5-0.625-0.031 nano-molar nAmb a 1 (added concentration) as well as starting 10 fold higher with AllerR mixed Sets (AllerR1-R6 and AllerR7-11). The activation process was stopped by incubating the blood samples at 4° C. for 5 min. The samples were then incubated for 20 min at +4° C.) (dark condition with 20 μl of phycoerythrin (PE)-conjugated anti-IgE and fluorescein isothyocyanate (FITC)-conjugated anti-gp53 (CD63). […] Cells were washed twice with PBS solution and resuspended in 200 μl of PBS solution and analyzed within 2 h by flow cytometry (FASC-LSRII-Becton Dickinson). The basophile population was gated on the PE anti-IgE positive cells and the expression of gp53 (CD63) was analyzed on this population. […]

[5] = test system: Rat Basophilic Leukemia cells (RBL-30/25) expressing human IgE receptor, pre-loaded with sera from allergic patients; assay: RBL cell degranulation (beta-hexosaminidase release); type: cell-based; conditions: sera from panel of allergic patients (21 sera); FIG. 3
Procedure: Alternatively, degranulation was monitored using Rat Basophilic Leukemia cells (RBL) expressing parts of the human IgE receptor pre-loaded with sera from allergic patients (Vogel et al, Allergy 60: 1021-1028 (2005)). Essentially, RBL-30/25 cells were pre-incubated overnight with sera from patients from the region around Lyon (France, Biomnis) as well as from US (Plasma Lab International). To increase and stabilize the secretion of beta-hexosaminidase, 50% D2O was added to the Tyrode's buffer used for the assay. beta-hexosaminidase release after IgE crosslinking with an anti-IgE antibody was set to 100% release reflecting the ability of the cells to release beta-hexosaminidase upon IgE crosslinking. Amb a 1-specific release is given as percent of IgE mediated release.

[6] = test system: Balb/c mice sensitized with nAmb a 1; assay: Anaphylactic response in sensitized mice (sensitization and challenge); type: in vivo
Procedure: Balb/c mice were sensitized by repeated injections of low doses (1 ug) of the allergen Amb a 1 by 5 subcutaneous injections at 14 days interval. […] Anaphylactic symptoms were scored using a scale of 6 grades (0, no symptoms to 5, death) adapted from Sade et al. J Investig Allergol Clin Immunol; 17(6): 379-385 (2007). Rectal temperature was monitored at 15 minutes intervals for 60 minutes after challenge using a digital thermometer. Citrate buffer was used as control for sensitization and challenge leading to two additional mice groups.

TSGAYNIIDGCWRGKADWAENRKALADCAQGFGKGTVGGKDGDIYTVTSELDDDVANPK (cysteines drawn unpaired) [AllerR1]
solubility ([1]; water): 2000 µg/mL

TIDGRGAKVEIINAGFTLNGVKNVIIHNINMHDVKVNPGGLIK [AllerR3]
solubility ([1]; water): 2000 µg/mL

FVLLFGAGDENIEDRGMLATVAFNTFTDNVDQRMPRCRHGFFQVVNNNYDKWGSYAIGGSASPTILSQGNRFCAPDERS [AllerR10]
Conc. (solubility) [2]: 2 mg/mL

DVANPKEGTLRFGAAQNRPLWIIFERDMVIRLDKEMVVNSDKTIDGRGAKVE [AllerR2]
solubility ([1]; water): 2000 µg/mL

VDAKLGTTRLTVSNSLFTQHQFVLLFGAGDENIEDRGMLATVAFNTFTDN [AllerR4.2]
solubility ([1]; 5 mM HCl, 0.1 M NaOH and 0.1 M citrate buffer pH 5.6, pH 5.6): 1000 µg/mL
Solubility (in words) ([1]; solvent as stated in the value): not soluble in H2O

AGSDGDAISISGSSQIWIDHCSLSKSVDGLVDAKLGTTRLTVSNSLFTQHQFVLLFGAGDENIEDRGMLATVAFNTFTDN [AllerR4]
IgE binding (in words) ([3]; as seen in competition ELISA): did not bind IgE
IgE binding (in words) ([4]; as seen in degranulation assays): did not bind IgE

B1: nAmb a 1: ragweed pollen major allergen purified from ragweed pollen by Protein Labs; positive control (protein)
chain: AEDLQEILPVNETRRLTTSGAYNIIDGCWRGKADWAENRKALADCAQGFGKGTVGGKDGDIYTVTSELDDDVANPKEGTLRFGAAQNRPLWIIFERDMVIRLDKEMVVNSDKTIDGRGAKVEIINAGFTLNGVKNVIIHNINMHDVKVNPGGLIKSNDGPAAPRAGSDGDAISISGSSQIWIDHCSLSKSVDGLVDAKLGTTRLTVSNSLFTQHQFVLLFGAGDENIEDRGMLATVAFNTFTDNVDQRMPRCRHGFFQVVNNNYDKWGSYAIGGSASPTILSQGNRFCAPDERSKKNVLGRHGEAAAESMKWNWRTNKDVLENGAIFVASGVDPVLTPEQSAGMIPAEPGESALSLTSSAGVLSCQPGAPC
Concentration range showing competition ([3]; panel of sera from 22 patients allergic to ragweed, data not shown): 10^−11 to 10^−8 molar
Concentrations at which competition with serum IgE occurs ([3]; sera from three allergic patients (17794, 18342, FB), FIG. 1): 10^−11 to 10^−8 M
Degranulation of RBL cells, in words [5]: triggered degranulation to various extents; also recorded: triggered degranulation to various extend
Anaphylactic symptom scores (scale 0 to 5) ([6]; challenge 7 days after last sensitizing injection, Amb a 1 30 μg/ml or AllerR 34 μg/ml, observed one hour, FIG. 5 panel A): significant increase in symptom scores already after 15 min
Rectal (body) temperature after challenge ([6]; measured every 15 min, FIG. 5 panel B): marked decrease in rectal temperature
IgE mean levels, increase over pre-immune following sensitization ([6]; mice sensitized by repeated s.c. injections of nAmb a 1, FIG. 5 panel C): about 500 fold
Basophil degranulation (CD63 expression), in words ([4]; human basophils loaded with serum FB, FIG. 2): induce human basophil degranulation
